Assay results taken from patent US6583149B1, “Method for the treatment or prevention of viral infection using nucleoside analogues” (BioChem Pharma Inc., priority 1999, dated 2003).
Like-named read-outs stand apart in the source and are kept apart here.

Key:
[1] = tested on: HSV-1; test: Herpes simplex virus plaque reduction assay in Vero34 cells; type: cell-based; conditions: Human alphaherpesvirus 1, 72 h, 3 days
Method: In 12 wells tissue culture dishes, 2×10^5 Vero34 cells were seeded in 2 mls of DMEM supplemented with 10% […]. The plate was incubated in 5% CO2/air at 37° C. overnight. The medium was removed and cells were inoculated with 200 PFU of HSV-1 diluted in a final volume of 0.5 ml DMEM supplemented with 2% FES. After adsorption at 37° C. for 1 hour, the viruses were removed and the cell monolayers were overlaid with 1 ml of DMEM-2% FES containing the test compound at final concentrations of 0.1, 1.0, 10, and 50 ug/ml. Acyclovir was used as a positive control. Uninfected and infected untreated monolayers were also included in the assay as controls. All compounds were tested in duplicates. After an incubation at 37° C. in 5% CO2/air for 3 days, cells were fixed with the addition of one volume of formaldehyde 8%/water for 30 min. The formaldehyde/medium was removed and the monolayers were stained with crystal violet 2%/ethanol 20% for few sec. The cells were rinsed with tap water and the monolayers were examined for the presence of plaques under a microscope.

[2] = tested on: Vero34 cells; type: cell-based; conditions: African green monkey, 48 h
Method: The CD50 value (cytotoxic dose at 50%) was assessed on virus-free control layers of cells to assess the toxicity of the compounds.
Flat bottom 96 well plates were plated with 5×1OE3 Vero-34 cells/well and 1×10E4 Hs-68 or Wi-38 cells/well respectively and incubated overnight at 37° C. and 5% CO2/air. After incubation, the supernatant medium was removed and replaced with test compound dilutions in 2% DMEM (150 ul). The cells were then incubated 48 hours in a 5% CO2 incubator at 37° C.
50 μl/well of 10 uCi/ml solution of [3H]-methyl thymidine (specific activity of approx. 2 Ci/mmol) was added to the culture medium and incubated overnight (18 hours) in a 5% CO2 incubator at 37° C.
Cells were then collected onto a fiberglass filter (Printed Filtermat A 1450-421 Wallac) with a Tomtec cell harvester. Suspended cells were collected directly onto filter while for adherent cells, the medium was first removed, then the cells washed with PBS and trypsinized for 2-3 minutes (50 μl trypsin/well) before collecting.
Filters were dried for 1 hour at 37-40° C. and then placed into bags (1450-microbeta #1450-432 Wallac) with 4.5 ml of Betascint and counts obtained with Microbeta 1450 Wallac (protocol 1).
(§1) The percent of cell proliferation was determined by comparison to the control (no test compound) and thereby establishing 50% inhibitory concentration is established.

[3] = tested on: RSV and CMV viruses; test: Case report: immune suppressed leukemia patient with RSV and CMV pneumonias in troxacitabine phase I study; type: in vivo, human; conditions: one elderly patient with relapsed resistant acute myeloid leukemia, also treated for RSV and CMV infections
Method: An elderly patient with relapsed resistant acute myeloid leukemia was entered in a troxacitabine (compound #1) as phase I Leukemia study. In the early part of the therapy, the patient, known to be immune suppressed, developed severe pneumonias. […] The patient to was maintained in the troxacitabine study and was treated for RSV and CMV viral infections.

[4] = tested on: HCMV; test: CMV plaque reduction assay in Hs68 cells; type: cell-based, human cytomegalovirus; conditions: 8 days, read-out: HCMV-1 IC50
Method: In 12-well tissue culture dishes, 1.5×10E5 or Hs68 cells (human […] fibroblast cell line) were plated per well with 2 ml of DMEM 10% fetal bovine serum and incubated in 5% CO2/air at 37° C. overnight or until cells were ready. The medium was then removed and the cells inoculated with 0.5 ml (containing 200 pfu/ml diluted in DMEM 2% FBS) of HCMV virus in each well. After adsorption at 37° C. for 2 hours, the virus was removed and cell monolayers were overlaid (1 ml) with DMEM 2% FBS containing test compounds at various concentrations. The cells were then incubated at 37° C. for 8 days, and then fixed with one volume (1 ml) of formaldehyde 8%/water or PBS 1× for 30 minutes. The formaldehyde solution was removed and the cell monolayers were stained with crystal violet 2%/EtOH 20% for a few seconds and then rinsed with water. Monolayers were examined for the presence of plaques under a microscope, the percentage of plaque reduction determined for each compound by comparison with the untreated cells (no test compound) and the 50% inhibitory concentration (IC50) established. DHPG was used as a positive control. Note: DMEM medium contained 1% glutamine and 1% pen/strep

[5] = tested on: Hs68 cells; test: Toxicity (CD50) reported with the CMV assay; type: cell-based, human; conditions: reported with HCMV assay
Method: Cells were then collected onto a fiberglass filter (Printed Filtermat A 1450-421 Wallac) with a Tomtec cell harvester.
as §1

IC50 [1] | IC50 [4] | Structure (SMILES) | toxicity CD50 [2] | Clinical outcome of viral pneumonias (RSV and CMV) [3] | IC50 ([4]; Human betaherpesvirus 5, 192 h) | toxicity CD50 [5]
13.3 µM | – | Nc1nc2c(ncn2COCCO)c(=O)[nH]1 [ACYCLOVIR, reference compound] | >13.3 µM | – | – | –
47 to 234 µM | – | Nc1ncn([C@@H]2CO[C@H](CO)O2)c(=O)n1 [COMPOUND #3, (−)cis-2-Hydroxymethyl-4-(5′-azacytosin-1′-yl)-1,3-Dioxolane] | – | – | – | –
– | 9.8 µM | Nc1nc2c(ncn2COC(CO)CO)c(=O)[nH]1 [DHPG, reference compound] | – | – | – | –

Structure (SMILES) | IC50 [1] | IC50 [4] | toxicity CD50 [2] | Clinical outcome of viral pneumonias (RSV and CMV) [3] | IC50 ([4]; Human betaherpesvirus 5, 192 h) | toxicity CD50 [5]
Nc1ccn([C@@H]2CO[C@H](CO)O2)c(=O)n1 [COMPOUND #1, (−)-cis-2-Hydroxymethyl-4-(cytosin-1′-yl)-1,3-dioxolane] | 1.7 µM | – | >50 µM | did recover from their pneumonias | 0.7 µM | >50 µM
